Test results reported in PubChem BioAssay AID463074 (Broad Institute, 2010).
The source made the active and inactive calls.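 The calls were made as follows: active = AC50 no more than tenfold above the top dose tested, or full inhibition at every dose with a flat fit (cut at about 19 µM in these data); inconclusive = flat curve fit with inhibition between 30% and 70%, or poor fit; inactive = AC50 more than tenfold above the top dose tested.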 Residues, ends and D or L forms follow the SMILES beside them. *: point of attachment. Boc = CC(C)(C)OC(=O)*; Bn = c1ccc(C*)cc1

System: HMLE_sh_eGFP viability, CellTiter-Glo luminescence, 72 h
Assay: cytotoxicity in HMLE control line with eGFP shRNA, dose response, counter-screen for HMLE_sh_ECad selective toxicity project, cell-based, HMLE_sh_eGFP, luminescence (AID 463074);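 also: counterscreen control line to flag general toxicity for the HMLE_sh_ECad screen; potency for loss of viability as luminescence drops below DMSO wells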

SMILES	AC50
CC(C)(C)c1ccc(OCC(=O)N/N=C/c2cc(Br)ccc2OC(=O)c2ccco2)cc1	3.61 µM
O=C1C2C3C=CC(C3)C2C(=O)N1c1ccc(N2CCN(c3ccccn3)CC2)c([N+](=O)[O-])c1 (stereo unspecified)	3.42 µM
Cc1nc(NC(=O)CC(C)C)sc1-c1csc(Nc2ccc(Cl)cc2Cl)n1	2.38 µM
COc1ccc(-c2nn(-c3ccccc3)cc2C(=O)N(C)CC(=O)Nc2cccc(F)c2)cc1	15 µM
COc1ccc(C(=O)Nc2ccc(Nc3ccccc3)cc2)cc1[N+](=O)[O-]	4.19 µM
CCCn1c(SCC#N)nc2c(c1=O)C1(CCCC1)Cc1ccccc1-2	1.52 µM
O=[N+]([O-])c1ccc(O)c(-c2nc(-c3ccccc3)c(-c3cccs3)[nH]2)c1	1.69 µM
Cc1ccccc1-n1c(SCC(=O)N/N=C/C=C/c2ccccc2[N+](=O)[O-])nc2ccccc2c1=O	> 19.5 µM (inactive)
Clc1ccccc1Cn1c(/C=C/c2ccco2)nc2ccccc21	2.19 µM
OCCCNc1cc(-c2ccccc2)nc2cc(-c3ccc(F)cc3)nn12	9.12 µM
CCOc1ccc(OCC(=O)N(CCC2=CCCCC2)c2c(N)n(Cc3ccccc3)c(=O)[nH]c2=O)cc1	6.29 µM
C=Cn1ccnc1P(=S)(c1ccc2c(c1)c1ccccc1n2CC)c1nccn1C=C	2.18 µM
c1ccc(-c2sc3ccccc3c2-c2ccc(OCCN3CCOCC3)cc2)cc1	3.24 µM
COc1cc(C(=O)N/N=C(\Cc2ncc[nH]2)c2ccccc2)cc(OC)c1OC	6.39 µM
CCc1ccc2[nH]c(=O)c(C3C(C#N)=C(N)Oc4c3ccc3cccnc43)cc2c1 (stereo unspecified)	8.92 µM
CC(C)CC(NC(=O)C(NC(=O)C(Cc1ccc(OCc2ccccc2)cc1)NC(=O)OC(C)(C)C)C(C)C)C(N)=O (stereo not drawn) (Boc-Tyr(Bn)-Val-Leu-NH2; configuration not given here)	> 19.5 µM (inactive)
Cc1cc(C(=O)NNc2ccc(F)cc2)no1	1.68 µM
COCCNC(=O)c1c[nH]c2ccc(S(=O)(=O)N3CCc4ccccc43)cc2c1=O	5.53 µM
CN1CCN(c2ccc(NC(=O)c3ccc(C#N)cc3F)cc2Cl)CC1	19.7 µM
Cc1ccc2c(c1)c1c(n2CC(O)CNC2CCCCC2)CCCC1 (stereo unspecified)	8.31 µM
CN1C(=O)/C(=C/c2cccc(Cl)c2)Sc2ccc(C(=O)NCc3cccnc3)cc21	5.15 µM
O=C(N/N=C/c1cc(Br)ccc1O)C(=O)Nc1ccccc1OC(F)(F)C(F)F	3.6 µM

SMILES	AC50
CCCCCCc1cc2cc(-c3nnc(-c4cc(OC)c(OC)c(OC)c4)o3)c(=O)oc2cc1O	5.89 µM
CN(C)S(=O)(=O)Oc1cccc(C(=O)Nc2ccc(Cl)c(Cl)c2)c1	6.22 µM
O=C(COc1ccccc1-c1ccccc1)N/N=C/c1cccc2ccccc12	0.608 µM
COC(=O)c1c(NC(=O)c2ccc(C)c(S(=O)(=O)Nc3ccccc3C)c2)sc2c1CCCC2	1.31 µM
CC(C)(C)[C@@H]1CCC(=O)N(CC[C@H](Sc2ccccc2)c2ccccc2)CC1	3.95 µM
OC(CN1CCN(c2ccccn2)CC1)Cn1c2ccc(Cl)cc2c2cc(Cl)ccc21 (stereo unspecified)	6.78 µM
Fc1ccc(NC(=S)Nc2cc(-c3ccccc3)[nH]n2)cc1Cl	3.46 µM
CC(NCc1ccc(OCc2ccc(Cl)cc2)cc1)C(O)c1ccccc1 (stereo unspecified)	3.57 µM
CCN(CC)c1nc(SCCOC(=O)Nc2ccccc2)nc(N(CC)CC)n1	4.58 µM
O=C(/C=C/c1ccc2c(c1)OCO2)NCCSCc1ccc(Cl)cc1	0.957 µM
O=Nc1c(O)n(Cc2ccc(Cl)c(Cl)c2)c2ccccc12	6.85 µM
O=c1[nH]c2ccccc2n1C1CCN(CCCC(c2ccc(F)cc2)c2ccc(F)cc2)CC1	6.27 µM
O=C(N/N=C/c1ccc(OC2CSC2)cc1)c1ccccc1	2.85 µM
Cc1ccc(C(=O)N2N=C(c3ccc(Br)cc3)CC2c2ccccc2O)cc1 (stereo unspecified)	3.54 µM
COc1cccc(/C=N/NC(=O)c2ccc(-c3ccccc3)cc2)c1O	3.33 µM
CCCCc1ccc(NC(=O)Nc2cc(C)nn2C)cc1	2.09 µM
O=C(/C=C/c1ccc2c(c1)OCCCO2)c1ccc2ccccc2c1O	12 µM
CCCC(=O)NC(=S)Nc1cccc(Cl)c1N1CCCC1	4.25 µM
CC1CCN(CCCNC(=O)c2ccc3c(=O)n(Cc4ccc(Cl)cc4)c(=S)[nH]c3c2)CC1	5.33 µM
CCCC(O)(c1ccc(Cl)cc1)C(CN1CCOCC1)c1ccc(Cl)cc1 (stereo unspecified)	9.47 µM
CCC(C)Sc1ccc(-c2nc3cnccn3c2NC2CCCCC2)cc1 (stereo unspecified)	3.73 µM
Cc1cc(SCC(=O)N/N=C/c2ccc(O)cc2O)c(C)cc1Br	4.42 µM

SMILES	AC50
CCN(CC)S(=O)(=O)c1ccc2c(c1)C(=NO)c1cc(S(=O)(=O)N(CC)CC)ccc1-2	0.756 µM
C=CCC[C@H](Cc1ccc(F)cc1)C(=O)OC[C@@H](Cc1c[nH]c2ccccc12)NC(=O)[C@@H](CC=C)CC(=O)N(CCO)Cc1ccccc1	4.34 µM
Cc1nn(-c2ccccc2)c(C)c1/C=N/n1c(-c2ccc(C(C)(C)C)cc2)n[nH]c1=S	6.74 µM
O=C(Nc1cccc(S(=O)(=O)N2CCCCC2)c1)c1ccc([N+](=O)[O-])o1	3.83 µM
CC(=O)Oc1c(Cl)cc(Cl)cc1/C=C/c1ccc2ccccc2n1	2.86 µM
Cc1cccc(C(=O)NNC2=C(C(=O)C(F)(F)F)CCC2)c1O	3.91 µM
Cc1ccc(C(C#N)c2ccc3c(C(F)(F)F)cc(C(F)(F)F)nc3n2)cc1 (stereo unspecified)	2.56 µM
COc1cc(CNCCc2c[nH]c3ccccc23)ccc1OCc1ccc(F)cc1	4.2 µM
N#C/C(=C/c1cn(-c2ccccc2)nc1-c1cccc(OCc2ccccc2)c1)C(=O)NCCCn1ccnc1	6.25 µM
FC(F)(F)c1cc(CCN2C(=S)NC[C@@H]2CC2CCCCC2)cc(C(F)(F)F)c1	7.29 µM
O=C(O)CCn1cc(/C=C/C(=O)c2ccc(Cl)cc2)c(-c2ccc(Br)cc2)n1	7.09 µM
COC(=O)c1cccc(NC(=O)Nc2ccc(Cl)c(Cl)c2)c1	11.4 µM
COc1ccc(-c2cc(C3CCN(c4ccc(C(C)=O)cc4[N+](=O)[O-])CC3)[nH]n2)cc1	8.83 µM
Cc1ccc(NS(=O)(=O)c2cc3c4c(cccc4c2)C(=O)NC3=O)cc1C	6.49 µM
Cn1c(O)c(/C=N/Nc2ccccc2)c(=O)n(C)c1=O	4.08 µM
CCn1c(C)c(C)c2cc(C(=O)Nc3cccc(Cl)c3)ccc21	4.05 µM
Cc1ccc(NC(=O)CN(C)C(=O)Cn2ncc(Cl)c(Cl)c2=O)cc1	4.22 µM
COc1ccc(CCNc2cc(C)nc3c(-c4ccc(Cl)cc4)c(C)nn23)cc1OC	3.62 µM
Cc1cc(C)nc(NC(=O)/C=C/c2ccc3c(c2)OCO3)c1	2.8 µM
CC(C)(C)c1ccc(/C=C(\c2nc3ccccc3[nH]2)S(=O)(=O)c2ccccc2)cc1	1.42 µM
O=C(N/C=N/OCc1ccc(Cl)cc1Cl)NOCc1ncc(C(F)(F)F)cc1Cl	5.04 µM
C=CCn1c(SCCC)nc2sc3c(c2c1=O)CCc1ccccc1-3	2.26 µM

SMILES	AC50
O=C1CC(c2ccc(F)cc2)CC2=C1C=Nc1ccccc1N2 (stereo unspecified)	> 19.5 µM (inactive)
COc1ccc(Cn2c(SCc3ccccc3C)nc3cc(OC)c(OC)cc3c2=N)cc1	3.7 µM
CCCn1c(=O)c(C(=O)NNS(=O)(=O)c2ccc(Cl)cc2)c(O)c2ccccc21	2.03 µM
Cc1ccc(C(C)C)c(OCc2ccc(C(=O)N/N=C/c3ccc(O)c(O)c3)cc2)c1	4.66 µM
Cc1[nH]n(-c2ccc([N+](=O)[O-])cc2)c(=O)c1C=NCCN1CCN(C(=O)C(C)C)CC1	5.14 µM
CCN1C(=O)C(=Cc2cccc(OC)c2Oc2ccc([N+](=O)[O-])cc2[N+](=O)[O-])SC1=S	2.27 µM
COc1cccc(-c2sc3ccc(OC)cc3c2-c2ccc(O)cc2)c1	3.7 µM
Cc1cccc(NC(=S)N/N=C/c2ccc([N+](=O)[O-])s2)c1	6.78 µM
C/C(=N\NC(=S)Nc1ccc(F)cc1)c1ccc2c(c1)OCCO2	2.36 µM
OCCCNc1nc(-c2ccccc2)c2cc(Br)ccc2n1	> 19.5 µM (inactive)
O=C(C#Cc1ccccc1)Nc1cccc(F)c1	3.43 µM
O=C(NCc1ccc(F)cc1)C(=O)Nc1nc(C23CC4CC(CC(C4)C2)C3)cs1	2.13 µM
COc1cccc(C(=O)Nc2ccc(C3CC3(Cl)Cl)cc2)c1 (stereo unspecified)	16.4 µM
C[C@H](CO)N1C[C@H](C)[C@@H](CN(C)S(=O)(=O)c2ccccc2)Oc2ccc(NC(=O)Nc3ccc(C(F)(F)F)cc3)cc2C1=O	12.9 µM
O=C(Nc1ccc(Cl)cc1)Nc1ccccc1Sc1ncc([N+](=O)[O-])s1	6.81 µM
COc1cc2sc(-c3ccccc3OC)c(-c3ccc(OCCN4CCCCC4)cc3)c2cc1OC	4.24 µM
O=C1NN(c2cccc(Br)c2)C(=O)/C1=C\c1ccccc1	6.97 µM
COCCNc1nnc(SC(C)C(=O)Nc2ccc(-c3nc4ccc(C)cc4s3)cc2)s1 (stereo unspecified)	10.5 µM
COc1ccc(-c2cc(C(=O)N3CC4(C)CC3CC(C)(C)C4)no2)cc1 (stereo unspecified)	1.43 µM
O=C(Nc1ccc2c(c1)OCO2)c1cc(-c2cccc(O)c2)on1	1.65 µM
